Results published in PMC11727143, “Peptide-Mediated Transport Across the Intact Tympanic Membrane Is Intracellular, with the Rate Determined by the Middle Ear Mucosal Epithelium” (Biomolecules, 2024).

Experiments:
tympanic membrane (TM) [1] = conditions: recovery from ME lumen after one-hour application to external TM surface; cited from earlier work
Method: Each peptide phage was applied to the external TM surface (10^9 PFU in 10 μL of PBS) of six previously infected rats, ensuring that the entire membrane surface was covered for one hour. The phage solution was removed from the ex ...

[2] = tested on: tympanic membrane (TM) cells; experiment: Confocal imaging of immunolabeled phage within the tympanic membrane after one-hour application to the external TM surface in vivo; set-up: species or system Sprague Dawley rats
Method: Rodent cocktail (2.0 mg/kg xylazine and 40.0 mg/kg ketamine i.m.) was employed for anesthesia. The ME bulla was exposed via a ventral midline neck incision. A 25 g needle was used to make a small opening in the bullar bone, through which 5 × 10^4 CFUs of nontypeable Haemophilus influenzae (NTHi) type 3655 [20] was injected, in 50 μL of BHI media using a 30 g needle. Care was taken to avoid damaging the tympanic membrane, ossicles, or inner ear. Animals survived for 48 h to allow for an ME infection to develop, which was confirmed by TM visualization. Phages were then applied to the external TM surface in vivo for one hour in 10^9 PFUs ([…] forming units) in 10 μL of PBS, ensuring the entire surface of the membrane was covered.
For confocal microscopy, TMT3 and WT phages were employed. The animal was sacrificed, the phage solution removed, and the TM washed 3× with PBS to remove any remaining phage solution, then 2× with acid wash to remove phages bound to the TM, followed by 2× with PBS. The bulla was then dissected and opened, the interior TM surfaces were washed as above, and the TM was fixed in cold 4% PFA overnight. The TM was dissected from the annular bone and additionally washed 2× with PBS, and the manubrium of the malleus carefully removed. The membrane was incubated in tissue-penetration and blocking solution (5% Triton X and 10% fetal bovine serum (FBS) in PBS) for one hour at room temperature. The TMs were again washed 2× in PBS and incubated in primary antibody (M13 anti-phage coat protein, rabbit polyclonal antibody, Invitrogen PA1-26758, 1:100) overnight at 4 °C. TMs were washed 2× in PBS and incubated with a secondary antibody (FITC-labeled anti-rabbit, Jackson Immuno, 711-095-152) previously treated with DyLight 405 stain for enhanced visualization (Jackson Immuno 711-475-152) at 1:100 concentration for three hours at room temperature with light protection. TMs were again washed with PBS 2× and stained with DAPI (Novus NPB2-31156, 1:1000, 30 min at room temperature with light protection). Some TMs were also incubated with Texas Red-X Phalloidin (Invitrogen T7471, F-actin staining) at 1:500 concentration for one and one-half hours at room temperature and light protection to stain actin. After incubations, TMs were washed 2× with PBS and mounted with the external surface uppermost using antifade, hard-mount media (Vectashield, VectaLabs H-1400). Control TMs were exposed for 1 h to PBS in vivo and then identically treated.
The localization of the phage was evaluated via fluorescence confocal microscopy. TMs were imaged on a Leica SP8 Confocal with Lightning-adaptive deconvolution or an Olympus FV1000 Confocal with SIM Scanner, and 60× and 100× image stacks were generated for rendering of stained TMs. Image stacks were post-processed using Velocity high-performance software to generate images. Separate portions of the stacks were used to visualize phages in the external epithelium, the middle fibrous layer, and the inner mucosal epithelium.

tympanic membrane (TM) [3] = experiment: Titer of phage recovered from within the TM (homogenate) after one-hour application to the external TM surface; type: in vivo, Sprague Dawley rats; conditions: 10^9 PFU in 10 μL PBS, six infected rats, PBS and 0.2 M glycine acid wash (pH 2.2), TM homogenized, titered on E. coli, mean of six
Method: Each peptide phage was applied to the external TM surface (10^9 PFU in 10 μL of PBS) of six previously infected rats, ensuring that the entire membrane surface was covered for one hour.

[4] = NTHi-infected ME, 10^9 PFU in 10 μL PBS, one hour, confocal, ImageJ count

Row | Sequence | trans-TM transport rate (in words) (tympanic membrane (TM) [1]) | mean number of puncta per cell, external epithelium of the TM ([2]; NTHi-infected ME, 10^9 PFU in 10 μL PBS on external TM surface, one hour, anti-M13 immunolabel, confocal, ImageJ count, s.d. 43.1) [puncta per cell] | median number of puncta per cell, external epithelium of the TM [2, 4] [puncta per cell] | median number of puncta per cell, inner mucosal epithelium of the TM [2, 4] [puncta per cell] | mean number of puncta per cell, inner mucosal epithelium of the TM ([2]; NTHi-infected ME, 10^9 PFU in 10 μL PBS, one hour, confocal, ImageJ count, significantly less than external epithelium (p 0.002)) | phage content of the cells with the highest numbers (mucosal cells comparable to external epithelium) ([2]; one-hour application, confocal, ImageJ count) | presence of phage within TM cells by immunolabeling (in words) ([2]; one-hour incubation on the external canal TM surface, confocal imaging) | phage titer recovered from within the TM (in words) (tympanic membrane (TM) [3])
1 | SADSTKTTHLTL [TMT3, M13 bacteriophage displaying 12-mer trans-TM peptide […] on pIII] | high transport rate | 139.2 | 110 | 23 | 42.9 (s.d. 44.8) puncta per cell | 200–250 puncta/cell | clearly intracellular and are restricted to the cell cytoplasm | higher than that of TMT3 (18)-1
2 | TLSPKMPGGGYW [TMT2] | low transport rate | – | – | – | – | – | – | significantly higher than those of TMT3
